Measurements: publication PMC8230565, “Bisavenathramide Analogues as Nrf2 Inductors and Neuroprotectors in In Vitro Models of Oxidative Stress and Hyperphosphorylation” (Antioxidants, 2021)
“Also recorded” adds a separate entry of the source.

How the values were obtained:
[1] = Ferric reducing antioxidant power (FRAP) assay; design: key to FRAP TEAC: trolox equivalents (TEAC), relative to trolox; settings: for FRAP nmol Fe2+ at 30 µM: 30 µM compound, n in brackets; for FRAP TEAC: 30 µM, relative to trolox
Protocol: A ferric reducing antioxidant power (FRAP) kit assay purchased from Sigma-Aldrich (Madrid, Spain) was employed for the experiments. The antioxidant solutions, FRAP assay buffer solution, FeCl3 solution, and FRAP probe solution were kept in ice during the preparation of the plate. A calibration standard curve was prepared by using the 2 mM ferrous standard solution provided in the FRAP kit assay. Appropriate aliquots of this solution were taken and diluted up to a 200 μL final volume with FRAP buffer. The final ferrous concentrations measured in the well were: 0, 20, 40, 60, 80, and 100 μM. Each concentration value was prepared and measured by triplicate. Stock solutions of compounds 3, as well as reference compounds trolox and ferulic acid, were freshly prepared in 95% ethanol at […]. Aliquots of 10 μL of compounds 3 and the reference compounds were mixed with 19 μL FeCl3 solution and 19 μL FRAP probe solution, and then completed to a final volume of 200 μL with FRAP assay buffer solution. The final concentration of antioxidants and references was 30 μM. Compounds 3, reference compounds, as well as the corresponding blank solutions (one for each compound to be assayed, avoiding the chromogenic FRAP probe), and positive control were thoroughly mixed in vortex for 1–2 min with the reaction chromogenic media, and then were incubated under darkness at 37 °C in the dry bath, and using the device for support well-plates. Each compound to be assayed and the reference antioxidant compounds were prepared and measured by triplicate. The absorbance values were measured at 594 nm after 5 min of reaction and, to assure complete reaction, the absorbance values after 60 min of incubation at 37 °C in the dry bath were also measured. The absorbance values of the sample antioxidant compounds were corrected by subtracting the corresponding absorbance values of the blanks, and then they were introduced in the calibration curve and the ferrous equivalents were determined. The reference antioxidants employed for this assay were trolox and ferulic acid, which were obtained from Sigma-Aldrich (Madrid, Spain). Ultrapure water was obtained from a Milli-Q Direct 8 system (Millipore, Molsheim, France).
In order to achieve a broader insight into the antioxidant profile of our compounds, we also examined them using a single electron transfer (SET)-based method, namely the ferric reducing antioxidant power (FRAP) assay, which measures the ability of an antioxidant to reduce the ferric ion in the TPTZ (2,4,6-tri(2-pyridyl)-1,3,5-triazine)-Fe(III) complex.

[2] = DPPH radical scavenging assay; settings: for DPPH Scavenging at 0.1 mM, %: 0.1 mM compound; for DPPH Scavenging at 1 mM, %: 1 mM compound; for IC50: n in brackets
Protocol: The direct antioxidant effects of compounds 3 were investigated by studying their radical-scavenging effect on the 2,2-diphenyl-1-picrylhydrazyl free radical (DPPH^•). Thus, a 100 μL volume of a methanol solution of each compound was added to 200 μL of 100 μM methanolic DPPH^•, and the solution was kept in the dark at 37 °C for 30 min in a 96-well microliter plate. After this incubation, the absorption at 490 nm of each solution was measured with a microplate reader in order to quantitate its decrease. A blank reading was also taken to calculate the amount of remaining DPPH^•. The radical-scavenging activity exerted by compounds 3 was determined by comparison with a 10 μL of MeOH-treated blank group. Ascorbic acid, a well-known antioxidant acting as a radical scavenger, was used as reference. All samples were analyzed in triplicate. Percent inhibition of the DPPH^• radical was calculated using the equation shown below, where AbsCtrl is the absorbance of the blank group and Abss is the absorbance of the samples containing compounds 3. For each compound showing a percentage of inhibition above 60%, the IC50 value was determined using a dose–response curve obtained from measurements corresponding to at least six concentrations. %Scavenger=AbsCtrl−AbsS/AbsCtrl×100
The radical scavenging activity of all compounds was first studied by the DPPH assay, which measures the ability of antioxidant compounds to donate a hydrogen atom to the violet 2,2-diphenyl-1-picrylhydrazyl radical and transform it into a nonradical species. Thus, it is generally considered to belong to the hydrogen atom transfer (HAT) category of methods for measurement of antioxidant activity.

SH-SY5Y cells = assay: Neuroprotection against okadaic acid in SH-SY5Y cells (MTT); format: cell-based; settings: for % neuroprotection against okadaic acid at 1 µM: Homo sapiens, SH-SY5Y, 18 h, 1 µM compound, okadaic acid 20 nM, read-out: % Neuroprotection ± SEM at 1 µM (okadaic acid)
Protocol: Neuroprotection studies against tau hyperphosphorylation exerted by okadaic acid (OA) were evaluated using the SH-SY5Y cell line as follows. […] After 18 h, cell viability was addressed by the MTT reduction method. MTT (5 mg/mL, 10 μL/well) was added and incubated for 2 h. Then, the medium was removed and the purple formazan crystals formed by viable cells were dissolved using 100 μL of DMSO. A FluoStar Optima spectrophotometer (BMG Labtech, Ortenberg, Baden-Württemberg, Germany) was used to measure the absorbance at 570 nm.
Okadaic acid is a potent inhibitor of protein phosphatase 2A (PP2A), thereby inducing tau hyperphosphorylation. For this reason, it can be employed as a model of neurodegenerative-disease-connected tau hyperphosphorylation, a well-known feature of Alzheimer’s disease, but present also in other NDDs, collectively known as tauopathies and characterized by the pathological aggregation of hyperphosphorylated tau in neurofibrillary tangles. […] Tau hyperphosphorylation is connected to oxidative stress, which activates p38 and deactivates calcineurin, a phosphatase involved in tau dephosphorylation by increasing RCAN1, its natural repressor [34, 35]. Indeed, hyperphosphorylation and oxidative stress have been proposed to generate a vicious circle that is critical to the advance of neurodegenerative tauopathies.

SMILES	FRAP nmol Fe2+ at 30 µM [1]	FRAP TEAC [1]	DPPH Scavenging at 0.1 mM, % [2]	DPPH Scavenging at 1 mM, % [2]	% neuroprotection against okadaic acid at 1 µM (SH-SY5Y cells)	antioxidant activity in FRAP compared with references [1]	radical scavenging activity in the DPPH assay [2]	IC50 [2]	neuroprotective effect against okadaic acid by concentration (SH-SY5Y cells; 0.01, 0.1, 1, 10 and 30 µM, OA 20 nM)	level of neuroprotection compared with melatonin / in words (okadaic acid) (SH-SY5Y cells; 1 µM)
COC(=O)C1=C(C)N(Cc2ccccc2)C(=O)/C1=C\c1ccc(OC)cc1 [Compound 3b, Methyl (Z)-1-Benzyl-4-(4-methoxybenzylidene)-2-methyl-5-oxo-4,5-dihydro-1H-pyrrole-3-carboxylate]	1.44 ± 0.02 (3) nmol Fe^2+	0.63	6.5 ± 4.5%	27.2 ± 6.4%	54.1 ± 14.3%					
COC(=O)C1=C(C)N(CCc2ccccc2)C(=O)/C1=C\c1ccc2c(c1)OCO2 [Compound 3d, Methyl (Z)-4-(Benzo[d](1,3)dioxol-5-ylmethylene)-2-methyl-5-oxo-1-phenethyl-4,5-dihydro-1H-pyrrole-3-carboxylate]	1.41 ± 0.04 (3) nmol Fe^2+	0.62	40.5 ± 5.0%	41.6 ± 4.1%	52.7 ± 17.2%					
COC(=O)C1=C(C)N(CCc2ccccc2)C(=O)/C1=C\c1ccc(O)c(O)c1 [Compound 3i, Methyl (Z)-4-(3,4-Dihydroxybenzylidene)-2-methyl-5-oxo-1-phenethyl-4,5-dihydro-1H-pyrrole-3-carboxylate]	2.30 ± 0.08 (3) nmol Fe^2+	1.01	90.9 ± 0.5%		60.9 ± 23.3%	more active than ferulic acid and slightly more active than trolox	high radical scavenging activity	7.5 ± 0.4 µM	concentration-dependent neuroprotective effect being statistically significant at 1 and 10 µM; also recorded: neuroprotection was lost at 30 µM	
COC(=O)C1=C(C)N(Cc2ccccc2)C(=O)/C1=C\c1ccc(Cl)cc1 [Compound 3c, Methyl (Z)-1-Benzyl-4-(4-chlorobenzylidene)-2-methyl-5-oxo-4,5-dihydro-1H-pyrrole-3-carboxylate]	1.41 ± 0.03 (3) nmol Fe^2+	0.62	3.7 ± 3.8%	36.6 ± 3.4%	52.8 ± 9.96%					
COC(=O)C1=C(C)N(CCc2ccc(OC)c(OC)c2)C(=O)/C1=C\c1ccc(OCc2ccccc2Cl)c(OC)c1 [Compound 3n, Methyl (Z)-4-[4-((2-Chlorobenzyl)oxy)-3-methoxybenzylidene]-1-(3,4-dimethoxyphenethyl)-2-methyl-5-oxo-4,5-dihydro-1H-pyrrole-3-carboxylate]	1.59 ± 0.02 (3) nmol Fe^2+	0.69	12.7 ± 3.5%	73.6 ± 0.7%	61.4 ± 15.8%			552 ± 17.4 µM		
COC(=O)C1=C(C)N(CCc2ccccc2)C(=O)/C1=C\c1ccc(OC)cc1OC [Compound 3e, Methyl (Z)-4-(2,4-Dimethoxybenzylidene)-2-methyl-5-oxo-1-phenethyl-4,5-dihydro-1H-pyrrole-3-carboxylate]	1.44 ± 0.01 (3) nmol Fe^2+	0.63	6.33 ± 4.2%	27.0 ± 2.6%	62.8 ± 8%					
COC(=O)C1=C(C)N(CCc2ccccc2)C(=O)/C1=C\c1ccc(OC)c(O)c1 [Compound 3h, Methyl (Z)-4-(3-Hydroxy-4-methoxybenzylidene)-2-methyl-5-oxo-1-phenethyl-4,5-dihydro-1H-pyrrole-3-carboxylate]	1.63 ± 0.04 (3) nmol Fe^2+	0.71	89.0 ± 0.4%		81.9 ± 28.5%		high radical scavenging activity	26.3 ± 2.1 µM		excellent neuroprotection
COC(=O)C1=C(C)N(CCc2ccccc2)C(=O)/C1=C\c1ccc(OCc2ccc(Cl)cc2)c(OC)c1 [Compound 3l, Methyl (Z)-4-[4-((4-Chlorobenzyl)oxy)-3-methoxybenzylidene]-2-methyl-5-oxo-1-phenethyl-4,5-dihydro-1H-pyrrole-3-carboxylate]	1.62 ± 0.03 (3) nmol Fe^2+	0.71	11.3 ± 2.6%	63.5 ± 2.2%	51.1 ± 18.4%			712.2 ± 5.4 µM		
COC(=O)C1=C(C)N(Cc2ccccc2)C(=O)/C1=C\c1ccccc1 [Compound 3a, Methyl (Z)-1-Benzyl-4-benzylidene-2-methyl-5-oxo-4,5-dihydro-1H-pyrrole-3-carboxylate]		0.62	9.7 ± 3.8%	47.5 ± 4.9%	68 ± 22%					
COC(=O)C1=C(C)N(CCc2ccc(OC)c(OC)c2)C(=O)/C1=C\c1ccc(OCc2ccc(Cl)cc2)c(OC)c1 [Compound 3m, Methyl (Z)-4-[4-((4-Chlorobenzyl)oxy)-3-methoxybenzylidene]-1-(3,4-dimethoxyphenethyl)-2-methyl-5-oxo-4,5-dihydro-1H-pyrrole-3-carboxylate]	1.59 ± 0.05 (3) nmol Fe^2+	0.70	22.8 ± 0.2%	85.5 ± 2.7%	40.7 ± 9.85%			334 ± 22.9 µM		
COC(=O)C1=C(C)N(CCc2ccccc2)C(=O)/C1=C\c1c[nH]c2ccccc12 [Compound 3o, Methyl (Z)-4-((1H-Indol-3-yl)methylene)-2-methyl-5-oxo-1-phenethyl-4,5-dihydro-1H-pyrrole-3-carboxylate]	1.80 ± 0.07 (3) nmol Fe^2+	0.79	12.7 ± 1.9%	49.9 ± 3.4%	46.3 ± 13.6%					
COC(=O)C1=C(C)N(CCc2ccccc2)C(=O)/C1=C\c1ccc(OCc2ccccc2F)c(OC)c1 [Compound 3j, Methyl (Z)-4-[4-((2-Fluorobenzyl)oxy)-3-methoxybenzylidene]-2-methyl-5-oxo-1-phenethyl-4,5-dihydro-1H-pyrrole-3-carboxylate]	1.60 ± 0.04 (3) nmol Fe^2+	0.70	4.3 ± 2.1%	31.3 ± 3.3%	31.8 ± 15.2%					
